Measured values taken from patent publication US11059800B2, “Dehydroleucodine derivatives and uses thereof” (Bioventures, LLC, priority 2013, dated 2021).
Entries after “also recorded” stand apart in the source; their conditions may differ.

How the values were obtained:
phospho-p65 = assay: Western blot of phospho-p65 and total p65 in MOLM-13 cells; assay type: cell-based; conditions: 10 or 20 μM, 6 hours
Experimental: (FIG. 8A) Graphical representation of the fold changes of HMOX-1 in MOLM-13 cells. Cells were seeded at 0.5 million cells per milliliter and subject to 20 μM of DHL, leucodine, DHL-proline, DHL-piperidine, DHL-morpholine, or parthenolide for 6 hours. RNA was then extracted and quantitative PCR was performed. Experiments were performed in triplicates. Lines represent mean for each specimen, with error bars representing the SD. Fold change was calculated by the delta-delta Ct method. […] (FIG. 8D) Immunoblot for MOLM-13 cells after 6 hours of treatment with either DHL or PTL with 10 or 20 μM. Blot was probed for phospho-p65 and p65 antibodies. Total p65 is shown as the loading control.

NCI/ADR-RES = assay: Single dose tumor cell growth inhibition, Ovarian Cancer NCI/ADR-RES; assay type: cell-based; conditions: single dose 10 μM
Source text: (§1) DHL is cytotoxic to various leukemia, colon cancer, CNS cancer and prostate cancer cell lines.

HMOX-1, HSPA1A, HSPH1 = assay: Real-time PCR gene expression in KG-1 and MOLM-13 cells; assay type: cell-based; conditions: 20 μM, 6 hours
Source text: FIG. 1A, FIG. 1B, FIG. 1C, FIG. 1D and FIG. 1E present the changes in gene expression in KG1 or MOLM13 cells after exposure to dehydroleucodine, parthenolide, or derivatives thereof. Plotted is the fold change in expression relative to control after treatment with parthenolide-tyramine (PTL-Tyr), parthenolide (PTL), leucodine (Leuco), dehydroleucodine (DHL), dehydroleucodine-tyramine (DHL-Tyr), or dehydroleucodine-morpholine (DHL-Morp). […] FIG. 1B plots the expression of HSPA1A in KG1 cells. FIG. 1C presents the expression of HSPH1 in KG1 cells. […] FIG. 1E presents the expression of HSPH1 in MOLM13 cells. Error bars represent S.E.M.
MOLM-13 and KG-1 cells were seeded at 0.5 million cells per ml. Cells were treated for 6 hours with 20 μM of parthenolide (PTL), dehydroleucodine (DHL), leucodine (Leu), parthenolide-tyramine (PTL-Tyr), dehydroleucodine-tyramine (DHL-Tyr) and dehydroleucodine-Morpholine (DHL-Morp), and then collected. Total RNA was extracted using the Qiashredder and Qiagen Rneasy mini kits (Quiagen) according to the manufacturer's instructions. Real-time PCR was performed using the Taqman RNA to CT 1-Step kit (Applied Biosystems). […] Single-plex real-time PCR was performed in triplicates in a StepOne plus RealTime PCR system (Applied Biosystems) and analyzed with the StepOne Software. Fold change was calculated using the 2-DDCT method.

PC-3 = assay: Single dose tumor cell growth inhibition, Prostate Cancer PC-3; assay type: cell-based, human; conditions: PC-3, single dose 10 μM
Source text: as §1

U-937 = assay: Cytotoxicity, annexin V/7-AAD viability by flow cytometry, U-937; assay type: cell-based, human; conditions: U-937, 48 hours, drug range tested 1.25-160 μM
Experimental: (§2) In order to assess the structure-activity relationship of DHL and its derivatives, DHL and its derivatives were evaluated against eight human leukemia cell lines. Cell lines were cultured in Iscove's Modified Dulbecco's Medium (IMDM) supplemented with 10%˜20% fetal bovine serum (FBS) according to culture conditions indicated by ATCC and 1% penicillin/streptomycin (Pen/Strep) at 37° C. and 5% CO2. The cells were seeded into 96-well plates and kept at a concentration of 0.5 million cells per mL. The samples were treated with DHL, Leucodine, DHL-Morpholine, DHL-Proline, DHL-Piperidine, and PTL at varying concentrations in triplicates. Cell viability was determined after incubating for 48 hours. The cells were stained with annexin V-fluorescein isothiocyanate or phycoeritrine (FITC/PE) and 7-aminoactinomycin (7-AAD) to detect phosphatidylserine exposition and cell permeability, respectively. At least 50,000 events were recorded per condition on either an LSR-II or LSR-Fortessa flow cytometer (BD Biosciences). Data analysis was conducted using FlowJo 9.6 software for Mac OS X (TreeStar). Cells that were negative for annexin V and 7-AAD were scored as viable.

HCT-116 = assay: Single dose tumor cell growth inhibition, Colon Cancer HCT-116; assay type: cell-based, human; conditions: HCT-116, single dose 10 μM
Source text: as §1

U251 = assay: Single dose tumor cell growth inhibition, CNS Cancer U251; assay type: cell-based, human; conditions: U251, single dose 10 μM
Source text: as §1

K-562 = assay: Single dose tumor cell growth inhibition, Leukemia K-562; assay type: cell-based; conditions: K-562, single dose 10 μM
Source text: as §1

HOP-62 = assay: Single dose tumor cell growth inhibition, Non-Small Cell Lung Cancer HOP-62; assay type: cell-based; conditions: HOP-62, single dose 10 μM
Source text: as §1

KG-1 = assay: Cytotoxicity, annexin V/7-AAD viability by flow cytometry, KG-1; assay type: cell-based, human; conditions: KG-1, 48 hours, drug range tested 1.25-160 μM
Experimental: In order to assess the structure-activity relationship of DHL and its derivatives, DHL and its derivatives were evaluated against eight human leukemia cell lines. Cell lines were cultured in Iscove's Modified Dulbecco's Medium (IMDM) supplemented with 10%˜20% fetal bovine serum (FBS) according to culture conditions indicated by ATCC and 1% penicillin/streptomycin (Pen/Strep) at 37° C. and 5% CO2. […] Cell viability was determined after incubating for 48 hours.

THP-1 = assay: Cytotoxicity, annexin V/7-AAD viability by flow cytometry, THP-1; assay type: cell-based, human; conditions: THP-1, 48 hours, drug range tested 1.25-160 μM
Experimental: as §2

HL-60 = assay: Cytotoxicity, annexin V/7-AAD viability by flow cytometry, HL-60; assay type: cell-based, human; conditions: HL-60, 48 hours, drug range tested 1.25-160 μM
Experimental: as §2

SMILES: C=C1C(=O)O[C@@H]2[C@H]3C(C)=CC(=O)C3=C(C)CC[C@@H]12 [DHL, dehydroleucodine]
- phospho-p65 level by Western blot (phospho-p65): significant decrease
- Percent inhibition (NCI/ADR-RES): 0.0%
- expression of HMOX-1, HSPA1A and HSPH1 (HMOX-1, HSPA1A, HSPH1): activated the expression of all three target genes in both cell lines; also recorded: more potent than PTL
- Percent inhibition (PC-3): 38.6%
- LD50 (U-937): 18.95 µM
- Percent inhibition (HCT-116): 41.3%
- Percent inhibition (U251): 30.0%
- Percent inhibition (K-562): 42.0%
- Percent inhibition (HOP-62): 0.0%
- LD50 (KG-1): 18.66 µM
- LD50 (THP-1): 16.82 µM
- LD50 (HL-60): 14.13 µM
